The record followed here is patent publication US6803457B1, “Compounds for the treatment of ischemia” (Pfizer, Inc., priority 1999, dated 2004).

In general, melting point refers to the temperature, or range, at which the solid turns liquid. `CNC(=O)[C@H]1O[C@@H](n2cnc3c(NCc4cc(Cl)ccc4OCc4cccc(C)c4)ncnc32)[C@H](O)[C@@H]1N` [Example 14, (2S,3S,4R,5R)3-Amino-5-{6-[5-chloro-2-(3-methyl-benzyloxy)-benzylamino]-purin-9-yl}-4-hydroxytetrahydrofuran-2-carboxylic acid methylamide] returned a melting point of 92 to 97 °C.

`CNC(=O)[C@H]1O[C@@H](n2cnc3c(NCc4cc(Cl)ccc4OCc4cccs4)ncnc32)[C@H](O)[C@@H]1N` [Example 31, (2S,3S,4R,5R)3-Amino-5-{6-[5-chloro-2-(thiophen-2-ylmethoxy)benzylamino]purin-9-yl}-4-hydroxytetrahydrofuran-2-carboxylic acid methylamide] gave a melting point of 135 to 141 °C.
